Laboratory results reported in US20230113037A1 (Bayer Aktiengesellschaft, priority 2019, published 2023).
Like-named read-outs stand apart in the source and are kept apart here.

Tests used:
[1] = molecular target: T1, AHR (Homo sapiens, UniProt P35869); test: In vitro assay 1: antagonism in human cell line (AHR transactivation, firefly luciferase reporter, kynurenic acid prestimulated); type: cell-based; conditions: AHR Antagonism Human IC50 [M]
T1 construct: U87 MG glioblastoma cells (ATCC #HTB-14) endogenously expressing AHR; endogenous in cells; host or cells: U87 MG glioblastoma cells (ATCC #HTB-14)
T1 sequence (P35869 11-848): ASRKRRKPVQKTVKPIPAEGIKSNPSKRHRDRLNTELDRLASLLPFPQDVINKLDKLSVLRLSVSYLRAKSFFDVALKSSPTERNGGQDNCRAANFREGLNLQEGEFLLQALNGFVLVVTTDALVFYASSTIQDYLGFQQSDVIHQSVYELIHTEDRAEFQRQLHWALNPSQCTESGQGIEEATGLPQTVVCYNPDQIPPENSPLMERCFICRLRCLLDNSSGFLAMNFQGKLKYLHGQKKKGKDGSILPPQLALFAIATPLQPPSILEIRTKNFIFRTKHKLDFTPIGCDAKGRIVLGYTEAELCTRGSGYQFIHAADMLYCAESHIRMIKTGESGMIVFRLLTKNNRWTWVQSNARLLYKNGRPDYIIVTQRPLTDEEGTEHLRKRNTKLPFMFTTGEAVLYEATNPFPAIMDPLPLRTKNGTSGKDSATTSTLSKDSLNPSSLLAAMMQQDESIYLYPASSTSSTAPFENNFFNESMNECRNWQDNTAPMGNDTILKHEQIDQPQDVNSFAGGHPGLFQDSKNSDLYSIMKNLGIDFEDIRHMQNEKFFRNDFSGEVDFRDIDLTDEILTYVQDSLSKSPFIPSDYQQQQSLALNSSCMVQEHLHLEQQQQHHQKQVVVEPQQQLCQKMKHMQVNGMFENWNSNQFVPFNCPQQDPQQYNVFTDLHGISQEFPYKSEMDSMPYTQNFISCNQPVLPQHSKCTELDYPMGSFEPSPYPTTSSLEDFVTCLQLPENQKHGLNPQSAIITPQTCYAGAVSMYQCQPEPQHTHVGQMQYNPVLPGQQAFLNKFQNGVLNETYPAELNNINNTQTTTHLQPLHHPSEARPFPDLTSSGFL
Method in brief: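 U87 MG + DRE-firefly/constitutive-Renilla stable reporters; kynurenic acid prestim; dual-luc read; Renilla = tox; normalized vs pos/neg controls (pos: 150 μM KYNA + 5 μM staurosporine).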

[2] = molecular target: T2, AHR (Mus musculus, UniProt P30561); test: In vitro assay 3: antagonism in mouse cell line (AHR transactivation, firefly luciferase reporter, kynurenic acid prestimulated); type: cell-based
T2 sequence (P30561 1-848 P471L/N533S/M589L): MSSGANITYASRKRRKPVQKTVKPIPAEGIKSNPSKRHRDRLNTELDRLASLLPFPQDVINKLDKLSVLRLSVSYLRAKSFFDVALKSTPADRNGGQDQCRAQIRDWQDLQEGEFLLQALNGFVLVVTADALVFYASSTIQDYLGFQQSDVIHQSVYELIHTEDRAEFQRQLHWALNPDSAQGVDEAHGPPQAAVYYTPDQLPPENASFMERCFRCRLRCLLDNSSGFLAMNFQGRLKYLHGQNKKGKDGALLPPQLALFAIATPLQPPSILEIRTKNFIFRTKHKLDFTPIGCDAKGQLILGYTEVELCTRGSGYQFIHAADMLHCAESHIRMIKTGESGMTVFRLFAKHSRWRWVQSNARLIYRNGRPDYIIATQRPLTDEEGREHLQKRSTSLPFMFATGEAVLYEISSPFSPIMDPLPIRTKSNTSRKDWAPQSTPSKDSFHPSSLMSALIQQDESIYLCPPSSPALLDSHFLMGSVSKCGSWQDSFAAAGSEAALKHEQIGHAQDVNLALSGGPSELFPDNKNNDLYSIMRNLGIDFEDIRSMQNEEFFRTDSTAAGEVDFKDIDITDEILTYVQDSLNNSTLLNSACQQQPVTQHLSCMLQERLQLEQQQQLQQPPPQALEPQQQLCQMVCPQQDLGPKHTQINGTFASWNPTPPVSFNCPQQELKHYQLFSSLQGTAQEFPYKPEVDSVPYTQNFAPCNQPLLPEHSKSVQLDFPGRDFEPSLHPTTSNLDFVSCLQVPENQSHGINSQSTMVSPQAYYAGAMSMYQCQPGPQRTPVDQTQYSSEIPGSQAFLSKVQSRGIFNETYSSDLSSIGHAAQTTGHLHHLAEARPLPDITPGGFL
Method in brief: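 Mouse cells stably carrying a DRE-driven, AHR-inducible firefly luciferase reporter were prestimulated with the endogenous agonist kynurenic acid before compound addition. Luciferase activity was measured by luminescence and normalized to positive and negative controls, with cells lacking kynurenic acid serving as full-inhibition control. Repeat tests are reported as mean or median.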

[3] = mouse Hepa 1c1c7 cells, 200 μM kynurenic acid, 20 hours, read-out: AHR Antagonism Mouse IC50
[4] = read-out: AHR Antagonism Mouse IC50, mouse Hepa 1c1c7 cells, 200 μM kynurenic acid, 20 hours
[5] = Hepa 1c1c7 cells, 200 μM kynurenic acid, 20 hours, firefly luciferase reporter, read-out: AHR Antagonism Mouse IC50
[6] = read-out: AHR Antagonism Mouse IC50, Hepa 1c1c7 cells, 200 μM kynurenic acid, 20 hours, firefly luciferase reporter

SMILES | IC50 [1] | IC50 [2, 3] | other results
CC[C@@H](Nc1nc2ccccc2c2nc(-c3cccnc3C(F)(F)F)nn12)C(N)=O [Example 489, (2R)-2-({2-[2-(trifluoromethyl)pyridin-3-yl][1,2,4]triazolo[1,5-c]quinazolin-5-yl}amino)butanamide] | 4.24e-07 M | 43.3 nM | –
COc1cccc(-c2nc3c4ccccc4nc(NC4CCCNC4=O)n3n2)c1 (stereo not shown) [Example 77, 3-{[2-(3-methoxyphenyl)[1,2,4]triazolo[1,5-c]quinazolin-5-yl]amino}piperidin-2-one] | 6.52e-08 M | 52.1 nM | –
Cn1cc(-c2nc3c4ccccc4nc(N[C@@H]4CCCCNC4=O)n3n2)nn1 [Example 435] | 1.3e-07 M | 164 nM | –
Cc1cccc2c1nc(N[C@@H]1CNCCNC1=O)n1nc(-c3cnn(C)c3)nc21 [Example 271, (6R)-6-{[7-methyl-2-(1-methyl-1H-pyrazol-4-yl)[1,2,4]triazolo[1,5-c]quinazolin-5-yl]amino}-1,4-diazepan-5-one] | 7.02e-07 M | 13900 nM | –
COc1cccc(-c2nc3c4ccccc4nc(N[C@@H](Cc4ccc(O)cc4)C(N)=O)n3n2)c1 [Example 84, N^2-[2-(3-methoxyphenyl)[1,2,4]triazolo[1,5-c]quinazolin-5-yl]-L-tyrosinamide] | 1.01e-06 M | 1380 nM | –
COc1cccc(-c2nc3c4cc(C)ccc4nc(N[C@@H]4CCCCNC4=O)n3n2)c1 [Example 154, (3R)-3-{[2-(3-methoxyphenyl)-9-methyl[1,2,4]triazolo[1,5-c]quinazolin-5-yl]amino}azepan-2-one] | 2.18e-09 M | 1.16 nM | –
CCC[C@@H](Nc1nc2ccccc2c2nc(-c3cc(Cl)ccc3OC(F)(F)F)nn12)C(=O)NC [Example 501, N^2-{2-[5-chloro-2-(trifluoromethoxy)phenyl][1,2,4]triazolo[1,5-c]quinazolin-5-yl}-N-methyl-D-norvalinamide] | > 2e-05 M | 90.8 nM | –
O=C1NCCCC[C@H]1Nc1nc2ccccc2c2nc(-c3cccc(F)c3)nn12 [Example 11, (3R)-3-{[2-(3-fluorophenyl)[1,2,4]triazolo[1,5-c]quinazolin-5-yl]amino}azepan-2-one] | 1.36e-09 M | – | IC50 [2, 4]: 0.569 nM
CCCCNC(=O)[C@@H](CC)Nc1nc2c(Br)cccc2c2nc(-c3ccc(Cl)cc3OC(F)(F)F)nn12 [Example 814, (2R)-2-({7-bromo-2-[4-chloro-2-(trifluoromethoxy)phenyl][1,2,4]triazolo[1,5-c]quinazolin-5-yl}amino)-N-butylbutanamide] | – | – | IC50 ([1]; firefly luciferase reporter): 2.5e-08 M; IC50 [2, 5]: 11 nM
Cn1cc(-c2nc3c4c(Cl)cccc4nc(N[C@@H]4CCCCNC4=O)n3n2)cn1 [Example 169, (3R)-3-{[10-chloro-2-(1-methyl-1H-pyrazol-4-yl)[1,2,4]triazolo[1,5-c]quinazolin-5-yl]amino}azepan-2-one] | 7.27e-09 M | – | IC50 [2, 4]: 118 nM
COc1ccc(-c2nc3c4cccc(Br)c4nc(N[C@H]4CCCCNC4=O)n3n2)c(OC(F)(F)F)c1 [Example 566, (3S)-3-({7-bromo-2-[4-methoxy-2-(trifluromethoxy)phenyl][1,2,4]triazolo[1,5-c]quinazolin-5-yl}amino)azepan-2-one] | 1.76e-07 M | 20.8 nM | –
COc1ccc(-c2nc3c4cccc(Br)c4nc(N[C@@H](C(N)=O)C(C)C)n3n2)cc1 [Example 556, N^2-[7-bromo-2-(4-methoxyphenyl)[1,2,4]triazolo[1,5-c]quinazolin-5-yl]-D-valinamide] | 4.03e-10 M | 0.415 nM | –
COc1ccc(-c2nc3c4cccc(Br)c4nc(N[C@H](C)C(=O)NCCN(C)C(=O)OC(C)(C)C)n3n2)cc1 [Example 887, tert-butyl [2-({N-[7-bromo-2-(4-methoxyphenyl)[1,2,4]triazolo[1,5-c]quinazolin-5-yl]-D-alanyl}amino)ethyl]methylcarbamate] | – | – | IC50 ([1]; firefly luciferase reporter): 1.37e-09 M; IC50 [2, 6]: 10.1 nM
Cn1cc(-c2nc3c4cccc(Br)c4nc(N[C@H]4CSCCNC4=O)n3n2)cn1 [Example 841, (6R)-6-{[7-bromo-2-(1-methyl-1H-pyrazol-4-yl)[1,2,4]triazolo[1,5-c]quinazolin-5-yl]amino}-1,4-thiazepan-5-one] | – | – | IC50 ([1]; firefly luciferase reporter): 1.82e-09 M; IC50 [2, 5]: 3.01 nM
Cn1cc(-c2nc3c4cccc(Br)c4nc(N[C@H]4C[S+]([O-])CCNC4=O)n3n2)cn1 (single isomer, unassigned) [Example 849] | – | – | IC50 ([1]; firefly luciferase reporter): 4.87e-07 M; IC50 [2, 5]: 513 nM
COc1ccc(-c2nc3c4cccc(C(C)C)c4nc(N[C@@H]4CCCCNC4=O)n3n2)cc1 [Example 587, (3R)-3-{[2-(4-methoxyphenyl)-7-(propan-2-yl)[1,2,4]triazolo[1,5-c]quinazolin-5-yl]amino}azepan-2-one] | 7.7e-09 M | 20.6 nM | –
C[C@@H](Nc1nc2c(C(F)(F)F)cccc2c2nc(-c3cnn(C)c3)nn12)C(=O)N1CC2(COC2)C1 [Example 880, (2R)-2-{[2-(1-methyl-1H-pyrazol-4-yl)-7-(trifluoromethyl)[1,2,4]triazolo[1,5-c]quinazolin-5-yl]amino}-1-(2-oxa-6-azaspiro[3.3]heptan-6-yl)propan-1-one] | – | – | IC50 ([1]; firefly luciferase reporter): 5.77e-08 M; IC50 [2, 6]: 193 nM
COc1ccc(-c2nc3c4cccc(C)c4nc(N[C@@H]4CCCCNC4=O)n3n2)cc1 [Example 143] | 2.42e-10 M | 0.884 nM | –
O=C1NCCCC[C@H]1Nc1nc2ccccc2c2nc(-c3cccc(C(F)(F)F)c3)nn12 [Example 54, (3R)-3-({2-[3-(trifluoromethyl)phenyl][1,2,4]triazolo[1,5-c]quinazolin-5-yl}amino)azepan-2-one] | 2.08e-08 M | 3.2 nM | –
Cc1c(-c2nc3c4cccc(C(F)(F)F)c4nc(N[C@@H]4CCCCNC4=O)n3n2)cnn1C [Example 734, (3R)-3-{[2-(1,5-dimethyl-1H-pyrazol-4-yl)-7-(trifluoromethyl)[1,2,4]triazolo[1,5-c]quinazolin-5-yl]amino}azepan-2-one] | 3.94e-09 M | 8.92 nM | –
O=C1NCCCC[C@H]1Nc1nc2ccccc2c2nc(-c3ccccn3)nn12 [Example 124, (3R)-3-{[2-(pyridin-2-yl)[1,2,4]triazolo[1,5-c]quinazolin-5-yl]amino}azepan-2-one] | 2.83e-08 M | 54.1 nM | –
CCNC(=O)[C@H](CC)Nc1nc2c(Br)cccc2c2nc(-c3ccc(Cl)cc3OC(F)F)nn12 [Example 799, (2S)-2-({7-bromo-2-[4-chloro-2-(difluoromethoxy)phenyl][1,2,4]triazolo[1,5-c]quinazolin-5-yl}amino)-N-ethylbutanamide] | – | – | IC50 ([1]; firefly luciferase reporter): 4.21e-08 M; IC50 [2, 5]: 18.5 nM
COc1ccc(-c2nc3c4cccc(OC)c4nc(N[C@@H]4CCCCNC4=O)n3n2)cc1 [Example 205, (3R)-3-{[7-methoxy-2-(4-methoxyphenyl)[1,2,4]triazolo[1,5-c]quinazolin-5-yl]amino}azepan-2-one] | 2.15e-09 M | 7.65 nM | –
